What was measured:
Assay in all cases: relative viability (nuclei count vs DMSO), 5 days (fraction); higher = more cells survive
A-427 = system: A-427
Outline: (§1)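 For relative viability, nuclei counts in treated wells were divided by those in vehicle wells. Lung cancer cell lines had been pin-tool dosed in 1536-well plates the day after seeding and cultured for 5 days, then fixed and stained in one step (final 0.05% Triton X-100, 1% formaldehyde, 1 ug/ml Hoechst) and imaged at 4×. Doses were one drug alone or a fixed anchor-drug dose plus five library-drug doses (not always all listed) in √10 steps, and values are duplicate-plate medians.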

ABC-1 = system: ABC-1
Outline: as §1

CAL-12T = system: CAL-12T
Outline: as §1

H3255 = system: H3255
Outline: as §1

LK-2 = system: LK-2
Outline: as §1

NCI-H1355 = system: NCI-H1355
Outline: as §1

NCI-H1395 = system: NCI-H1395
Outline: as §1

NCI-H1563 = system: NCI-H1563
Outline: as §1

NCI-H1651 = system: NCI-H1651
Outline: as §1

NCI-H1666 = system: NCI-H1666
Outline: as §1

NCI-H1792 = system: NCI-H1792
Outline: as §1

NCI-H2085 = system: NCI-H2085
Outline: as §1

NCI-H2087 = system: NCI-H2087
Outline: as §1

NCI-H2228 = system: NCI-H2228
Outline: as §1

NCI-H23 = system: NCI-H23
Outline: as §1

NCI-H322M = system: NCI-H322M
Outline: as §1

NCI-H358 = system: NCI-H358
Outline: as §1

NCI-H661 = system: NCI-H661
Outline: as §1

NCI-H838 = system: NCI-H838
Outline: as §1

PC-14 = system: PC-14
Outline: as §1

UMC-11 = system: UMC-11
Outline: as §1

SMILES: COCC1(CO)C(=O)C2CCN1CC2 (stereo unspecified) [PRIMA-1MET] + CS(=O)(=O)CCNCc1ccc(-c2ccc3ncnc(Nc4ccc(OCc5cccc(F)c5)c(Cl)c4)c3c2)o1 [Lapatinib] (partner 2 µM)
- relative viability (A-427; first compound 0.2 µM): 1.08
- relative viability (A-427; first compound 0.6325 µM): 0.849
- relative viability (A-427; first compound 2 µM): 0.895
- relative viability (A-427; first compound 6.325 µM): 1.02
- relative viability (A-427; first compound 20 µM): 0.982
- relative viability (ABC-1; first compound 0.2 µM): 1.05
- relative viability (ABC-1; first compound 0.6325 µM): 1.11
- relative viability (ABC-1; first compound 2 µM): 0.956
- relative viability (ABC-1; first compound 6.325 µM): 1.17
- relative viability (ABC-1; first compound 20 µM): 1.03
- relative viability (CAL-12T; first compound 0.2 µM): 0.704
- relative viability (CAL-12T; first compound 0.6325 µM): 0.736
- relative viability (CAL-12T; first compound 2 µM): 0.571
- relative viability (CAL-12T; first compound 6.325 µM): 0.677
- relative viability (CAL-12T; first compound 20 µM): 0.388
- relative viability (H3255; first compound 0.2 µM): 0.231
- relative viability (H3255; first compound 0.6325 µM): 0.21
- relative viability (H3255; first compound 2 µM): 0.225
- relative viability (H3255; first compound 6.325 µM): 0.237
- relative viability (H3255; first compound 20 µM): 0.195
- relative viability (LK-2; first compound 0.2 µM): 0.885
- relative viability (LK-2; first compound 0.6325 µM): 0.755
- relative viability (LK-2; first compound 2 µM): 0.6
- relative viability (LK-2; first compound 6.325 µM): 0.662
- relative viability (LK-2; first compound 20 µM): 0.18
- relative viability (NCI-H1355; first compound 0.2 µM): 1.12
- relative viability (NCI-H1355; first compound 0.6325 µM): 0.933
- relative viability (NCI-H1355; first compound 2 µM): 0.893
- relative viability (NCI-H1355; first compound 6.325 µM): 1
- relative viability (NCI-H1355; first compound 20 µM): 0.998
- relative viability (NCI-H1395; first compound 0.2 µM): 0.922
- relative viability (NCI-H1395; first compound 0.6325 µM): 0.701
- relative viability (NCI-H1395; first compound 2 µM): 1.09
- relative viability (NCI-H1395; first compound 6.325 µM): 0.89
- relative viability (NCI-H1395; first compound 20 µM): 0.908
- relative viability (NCI-H1563; first compound 0.2 µM): 0.991
- relative viability (NCI-H1563; first compound 0.6325 µM): 0.988
- relative viability (NCI-H1563; first compound 2 µM): 0.606
- relative viability (NCI-H1563; first compound 6.325 µM): 1.09
- relative viability (NCI-H1563; first compound 20 µM): 0.455
- relative viability (NCI-H1651; first compound 0.2 µM): 0.917
- relative viability (NCI-H1651; first compound 0.6325 µM): 0.731
- relative viability (NCI-H1651; first compound 2 µM): 0.659
- relative viability (NCI-H1651; first compound 6.325 µM): 0.839
- relative viability (NCI-H1651; first compound 20 µM): 0.736
- relative viability (NCI-H1666; first compound 0.2 µM): 0.765
- relative viability (NCI-H1666; first compound 0.6325 µM): 0.584
- relative viability (NCI-H1666; first compound 2 µM): 0.596
- relative viability (NCI-H1666; first compound 6.325 µM): 0.688
- relative viability (NCI-H1666; first compound 20 µM): 0.275
- relative viability (NCI-H1792; first compound 0.2 µM): 0.825
- relative viability (NCI-H1792; first compound 0.6325 µM): 0.769
- relative viability (NCI-H1792; first compound 2 µM): 0.868
- relative viability (NCI-H1792; first compound 6.325 µM): 0.963
- relative viability (NCI-H1792; first compound 20 µM): 0.807
- relative viability (NCI-H2085; first compound 0.2 µM): 0.814
- relative viability (NCI-H2085; first compound 0.6325 µM): 0.591
- relative viability (NCI-H2085; first compound 2 µM): 0.523
- relative viability (NCI-H2085; first compound 6.325 µM): 0.54
- relative viability (NCI-H2085; first compound 20 µM): 0.493
- relative viability (NCI-H2087; first compound 0.2 µM): 0.848
- relative viability (NCI-H2087; first compound 0.6325 µM): 0.813
- relative viability (NCI-H2087; first compound 2 µM): 0.848
- relative viability (NCI-H2087; first compound 6.325 µM): 1.22
- relative viability (NCI-H2087; first compound 20 µM): 0.919
- relative viability (NCI-H2228; first compound 0.2 µM): 1.12
- relative viability (NCI-H2228; first compound 0.6325 µM): 0.834
- relative viability (NCI-H2228; first compound 2 µM): 1.59
- relative viability (NCI-H2228; first compound 6.325 µM): 1.23
- relative viability (NCI-H2228; first compound 20 µM): 0.0337
- relative viability (NCI-H23; first compound 0.2 µM): 1.29
- relative viability (NCI-H23; first compound 0.6325 µM): 0.951
- relative viability (NCI-H23; first compound 2 µM): 0.897
- relative viability (NCI-H23; first compound 6.325 µM): 0.961
- relative viability (NCI-H23; first compound 20 µM): 0.117
- relative viability (NCI-H322M; first compound 0.2 µM): 0.634
- relative viability (NCI-H322M; first compound 6.325 µM): 0.629
- relative viability (NCI-H322M; first compound 20 µM): 0.61
- relative viability (NCI-H358; first compound 0.2 µM): 0.486
- relative viability (NCI-H358; first compound 0.6325 µM): 0.431
- relative viability (NCI-H358; first compound 6.325 µM): 0.471
- relative viability (NCI-H358; first compound 20 µM): 0.0399
- relative viability (NCI-H661; first compound 0.2 µM): 0.531
- relative viability (NCI-H661; first compound 0.6325 µM): 0.467
- relative viability (NCI-H661; first compound 6.325 µM): 0.493
- relative viability (NCI-H661; first compound 20 µM): 0.266
- relative viability (NCI-H838; first compound 0.2 µM): 1.23
- relative viability (NCI-H838; first compound 0.6325 µM): 0.913
- relative viability (NCI-H838; first compound 2 µM): 0.801
- relative viability (NCI-H838; first compound 6.325 µM): 1.06
- relative viability (NCI-H838; first compound 20 µM): 0.197
- relative viability (PC-14; first compound 0.2 µM): 0.396
- relative viability (PC-14; first compound 0.6325 µM): 0.326
- relative viability (PC-14; first compound 2 µM): 0.251
- relative viability (PC-14; first compound 6.325 µM): 0.367
- relative viability (PC-14; first compound 20 µM): 0.358
- relative viability (UMC-11; first compound 0.2 µM): 1.12
- relative viability (UMC-11; first compound 0.6325 µM): 0.898
- relative viability (UMC-11; first compound 2 µM): 0.755
- relative viability (UMC-11; first compound 6.325 µM): 0.961
- relative viability (UMC-11; first compound 20 µM): 0.991

Source: the supplement of paper PMC10307832
